Measurements as given in patent US7611863B2, “Selective staining of biomembranes using voltage-sensitive dyes” (Max-Planck-Gesellschaft zur Foerderung der Wissenschaften …, priority 2004, dated 2009).

What was measured:
[1] = tested on: HEK 293 cells expressing fusion protein of plasma membrane anchor and PLAP; test: Staining of HEK 293 cells through overexpressed membrane-bound phosphatase; format: cell-based
Description: FIG. 13A to C: Staining of transfected HEK 293 cells with a voltage sensitive dye by activation of binding through an overexpressed, membrane-bound phosphatase. HEK 293 cells were cotransfected with a vector coding for GFP and a vector coding for a fusion protein of a plasma membrane anchor and phosphatase from the human placenta. A. fluorescence image showing the GFP fluoresence of a transfected cell (excitation filter 450/50 nm, emission filter 510 nm longpass; dichroic mirror: 505 nm). B. The voltage sensitive fluorescent dye Di-8-phosphato-ASPBS (cf. FIG. 11, bottom) was added to the incubation medium. […] C. […] The images shown are optimized for contrast and intensity.
(§1) FIG. 16. Genetically Targeted Staining of HEK293 cells with 1 mM Di-10P-ASPBS. A mixture of stable clones either expressing the membrane-bound phosphatase construct or cytosolic GFP were cultured on the same dish. (A) From left to right: (i) Brightfield image of cells. (ii) Fluorescence image of cells showing cells expressing cytosolic GFP (excitation filter 450/50 nm, emission filter 510 nm, dichroic mirror 505 nm). (iii) Cells expressing phosphatase as obtained by subtraction of GFP expressing cells from image i. (iv) Fluorescence image of cells with filters exc. 535/50 nm, em. 610/75 nm; dichroic mirror 535 nm. The image is normalized to the same level as in row B. (v) autoleveled image iv, showing fluorescence crosstalk of GFP. (B) Enzyme induced staining of cells as measured with filter set exc. 535/50 nm, em. 610/75 nm; dichroic mirror 535 nm. The membrane fluorescence increases over time. (C). Inverted and contrast-enhanced fluorescence images corresponding to row B. (D) Difference images. The image A/iv was subtracted from the images in row B. The resulting images were inverted and contrast was enhanced.
as §1, with “17.” for “16.”, “200 nM Di-12P-ASPBS.” for “1 mM Di-10P-ASPBS.”, “difference” for “and contrast-enhanced fluorescence images corresponding to row B. (D) Difference”, “enhanced. (D) Contrast enhanced images of row C.” for “enhanced.”
Enzyme induced staining. The dye precursors Di-10P-ASPBS and Di-12P-ASPBS were used to effect enzyme induced staining on cells. To test whether the staining is selective, a mixture of two cell populations was cultured in the same dish. One of these stably expressed the phosphatase construct, while the other was stably expressing GFP as a negative marker.

[2] = Enzyme induced staining of giant vesicles; format: biochemical; details: giant POPC vesicles, 9.8 μM dye phosphate, PLAP added
Experimental: Enzyme induced staining of giant vesicles. Giant POPC vesicles were prepared by electroswelling^27,28. 5 μl of a 2 mM lipid solution in diethylether/methanol (9:1, v/v) were applied to a pair of planar electrodes of indium tin oxide coated with 70 nm of silica. After evaporation of the solvent under reduced pressure (0.1 mbar), 2 ml of 300 mM sucrose were added and giant vesicle formation was promoted by applying AC voltage to the electrodes. After formation was complete, vesicles were transferred to 35 mm polypropylene cell culture dishes (BD Biosciences Europe, Le Pont de Claix, France) and diluted in the same buffer. They were used the same day.
For enzyme kinetic measurements at room temperature, 400 μl of the giant vesicle stock solution were transferred to a culture dish containing 3,600 μl buffer (20 mM Tris, 100 mM NaCl, 120 mM Glucose, pH 8.1). […] The fluorescence of a selected giant vesicle with a diameter of 10 to 40 μm was observed using a microscope (Axioskop, Zeiss, Oberkochen, Germany) equipped with a 100 water immersion objective and a b/w CCD camera (Sony ICX 285 Chip, Theta System, Gröbenzell, Germany). […] The fluorescence was detected through the dichroic mirror and a long pass filter (510 nm). […] Images were recorded every 10 or 20 seconds before and after addition of the phosphatase. […]

Compound | selectivity of staining among precursor dyes ([1]; HEK293 and MDCK cells overexpressing ArtPlasMA-PLAP, Di-8P, Di-10P, Di-12P compared) | staining intensity and confinement to phosphatase expressing cells ([1]; compared with Di-10P-ASPBS) | enzyme induced membrane staining in mixed cell populations ([1]; phosphatase clones and GFP clones in same dish, 1 mM Di-10P-ASPBS, 200 nM Di-12P-ASPBS) | ratio of fluorescence intensities F∞/F0 [2]
Di-12-phosphato-ASPBS [Di-12P-ASPBS] | best selectivity | distinctly better | allowed enzyme induced membrane staining | 
CCCCN(CCCC)c1ccc(/C=C/c2cc[n+](CCCOP(=O)([O-])O)cc2)cc1 [Di-4-ASPP phosphate] |  |  |  | 9-13
